According to patent US12202832B2, “Heterocyclic compounds having a calcium-sensing receptor antagonistic activity” (TAKEDA PHARMACEUTICAL COMPANY LIMITED, priority 2017, dated 2025):

Experiments:
CSQ-Tg mice [1] = assay: Heart weight lowering effect in heart failure animal model; format: in vivo; details: mean ± standard deviation; for Heart weight / Right ventricle weight: ** p < 0.025 Williams' test
Method: In this Test Example, the heart weight lowering effect of the compound of Example 1 (referred to herein as “Example 1”) was evaluated using CSQ-Tg mice as animal model for heart failure.
The Example 1 was suspended in 0.5% methylcellulose aqueous solution (hereinafter, in Test Examples, sometimes referred to as “vehicle”) (10 mL/kg). The obtained suspension was orally administered to 5-week old female CSQ-Tg mice developing heart failure at a dose of 30 mg/kg bodyweight/day (n=7) or 90 mg/kg bodyweight/day (n=9) once daily (QD) for 21 days. For a negative control (vehicle administration group), 0.5% methylcellulose aqueous solution (n=7) was administered. Then, weights of the hearts were measured. The measurement of the weights was carried out by fractionating each of the hearts into four: left ventricle, right ventricle, left atrium, and right atrium. The sum of the weights of the four fractions was defined as the heart weight.

CSQ-Tg mice [2] = assay: Effect on survival rate of heart failure animal model; format: in vivo; details: oral QD 68 days, control: candesartan cilexetil mono-administration
Method: FIG. 1 is a graph showing a result of Test Example 5 “Effect of Compound of Example 1 on Survival Rate of Heart Failure Animal Model”, that is, survival rates of each of the mono-administration group of candesartan cilexetil, the co-administration group of candesartan cilexetil and the compound of Example 1 at 10 mg/kg bodyweight/day, and the co-administration group of candesartan cilexetil and the compound of Example 1 at 30 mg/kg bodyweight/day (log-rank test, the co-administration group of candesartan cilexetil and the compound of Example 1 at 10 mg/kg bodyweight/day (p<0.05), the co-administration group of candesartan cilexetil and the compound of Example 1 at 30 mg/kg bodyweight/day (p<0.01)).
In this Test Example, effect of Example 1 on survival rate was examined using heart failure animal models. The mice reported in Larry R. Jones et al., J. Clin. Invest. 101: 1385-1393, 1998 were obtained from the University of Pennsylvania and bred in-house, which were cardiac-specific transgenic mice of Calsequestrin (CSQ) (CSQ-Tg mice) as the heart failure animal models. In the study, female mice were used, and dosing was started from the age of 5 weeks. The animals were fed with chow (CE-2, CLEA Japan, Inc.) and tap water under the condition of room temperature of 20 to 26° C., humidity of 40 to 70%, and lighting time of 12 hours/day (7:00 to 19:00). […]

CYP3A4 = molecular target: T1, CYP3A4 (Homo sapiens, UniProt P08684); assay: CYP3A4 TDI in human liver microsomes (testosterone 6β-hydroxylation); format: in vitro ADME; details: 30 μM test compound, 60 min vs 0 min preincubation, solvent DMSO/acetonitrile (1:4, v/v)
T1 construct: Human liver microsomes purchased from XenoTech, LLC (Lenexa, KS) was used; tissue XenoTech, LLC (Lenexa, KS); host or cells: human liver microsomes
Method: Human liver microsomes purchased from XenoTech, LLC (Lenexa, KS) was used. Test compounds were dissolved in acetonitrile or DMSO/acetonitrile (1:4, v/v). To a human liver microsomes solution adjusted with phosphate buffer (pH 7.4), the test compound solution was added to obtain a human liver microsomes reaction solution having the test compound concentration of 30 μM. To the human liver microsome reaction solution, NADPH production system was added, and the mixture was preincubated at 37° C. for 0 minutes or 60 minutes. After the preincubation, probe substrate testosterone was added, and testosterone metabolite 6β-hydroxytestosterone was analyzed by LC/MS/MS to evaluate CYP3A4 enzymatic activity.
The enzyme activity (% of control) at each preincubation point was calculated from the following equation: % of control={(activity of test compound addition group)/(activity of test compound non-addition group)}×100.
The remaining activity (% remaining) after 60 minutes of preincubation was calculated from the following equation: Remaining activity (%)={activity after 60 minutes (% of control60 min)}/{activity after 0 minutes (% of control0 min)}×100.

[3] = 30 mg/kg bodyweight/day oral QD 21 days
[4] = 90 mg/kg bodyweight/day oral QD 21 days

T1 sequence (P08684 whole entry): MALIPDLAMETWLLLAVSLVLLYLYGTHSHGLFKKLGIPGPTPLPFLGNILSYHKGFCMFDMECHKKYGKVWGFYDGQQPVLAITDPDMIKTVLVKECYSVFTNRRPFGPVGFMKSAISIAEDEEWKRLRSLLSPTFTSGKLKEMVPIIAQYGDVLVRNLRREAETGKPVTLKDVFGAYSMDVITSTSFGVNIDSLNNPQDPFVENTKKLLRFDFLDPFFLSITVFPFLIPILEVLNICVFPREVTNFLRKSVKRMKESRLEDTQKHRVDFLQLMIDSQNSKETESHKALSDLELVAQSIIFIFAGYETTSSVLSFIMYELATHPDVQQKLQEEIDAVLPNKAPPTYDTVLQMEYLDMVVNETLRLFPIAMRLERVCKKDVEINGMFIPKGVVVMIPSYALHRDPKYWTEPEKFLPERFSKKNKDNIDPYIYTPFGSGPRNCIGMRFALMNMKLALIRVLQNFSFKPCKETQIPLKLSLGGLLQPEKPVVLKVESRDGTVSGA

## CCc1ccc([C@@](CC)(NC(=O)c2c(C)nn3c2N[C@@H](c2ccccc2)CC3(C)C)C(=O)N[C@@H](C)C(N)=O)cc1 [Example 1, (5R)-N-((2R)-1-(((2S)-1-Amino-1-oxopropan-2-yl)amino)-2-(4-ethylphenyl)-1-oxobutan-2-yl)-2,7,7-trimethyl-5-phenyl-4,5,6,7-tetrahydropyrazolo[1,5-a]pyrimidine-3-carboxamide]
CSQ-Tg mice [1]; [3]
  Left atrium weight: 8.1 ± 3.8 mg
  Left ventricle weight: 147.4 ± 12.0 mg
  Right atrium weight: 5.5 ± 2.6 mg
  Heart weight: 202.8 ± 14.1** mg
  Right ventricle weight: 41.8 ± 6.0** mg
CSQ-Tg mice [1]; [4]
  Left atrium weight: 9.1 ± 5.1 mg
  Left ventricle weight: 147.0 ± 8.6 mg
  Right atrium weight: 5.1 ± 2.2 mg
  Heart weight: 202.5 ± 19.1** mg
  Right ventricle weight: 41.3 ± 7.6** mg
CSQ-Tg mice [2]; 10 mg/kg bodyweight/day co-administered with candesartan cilexetil (1 mg/kg bodyweight/day)
  Survival rate, log-rank test p: < 0.05
CSQ-Tg mice [2]; 30 mg/kg bodyweight/day co-administered with candesartan cilexetil (1 mg/kg bodyweight/day)
  Survival rate, log-rank test p: < 0.01
CYP3A4
  Remaining Activity: 96.2%
